Assays:
IDO gene in UCMSCs = experiment: Priming of UCMSCs with IFN-γ in combination with a supplement, IDO gene mRNA by real-time PCR; assay type: cell-based, human; settings: 250 U/mL of IFN-γ in combination with the supplement, 72 hours; compared with comparative group (IFN-γ only)
Protocol: In order to determine whether addition of a supplement, which is selected from one of vitamin, steroid, cytokine, double-stranded RNA, and histone deacetylase (HDAC) inhibitor, enhanced the effect of IFN-γ in the priming of UCMSCs, the following experiments were conducted.
In brief, UCMSCs culture as described in Item 2 of the General Experimental Materials were divided into 8 groups, namely, a normal control group (NCG), a comparative group (CG) and 6 experimental groups, i.e., experimental group 1 to experimental group 6 (EG1 to EG6), with the number of UCMSCs in each group being 5.8×10^5 cells. Next, the UCMSCs in each group were subjected to priming, in which the UCMSCs in the CG were treated with 250 U/mL of IFN-γ for 72 hours, the UCMSCs in a respective one of the EG1 to EG6 were treated with 250 U/mL of IFN-γ in combination with 1 μM of retinoic acid, 1 μg/mL of dexamethasone, 10 ng/mL of TNF-α, 25 μg/mL of polyinosinic acid-polycytidylic acid, 0.5 mM of valproic acid, and 1 μM of budesonide, respectively, for 72 hours, while the UCMSCs in the NCG were not subjected to any treatment and were left to stand for 72 hours.

[1] = tested on: indoleamine-pyrrole 2,3-dioxygenase (IDO)-expressing UCMSCs; experiment: Priming of UCMSCs with IFN-γ, percentage of IDO-expressing UCMSCs by flow cytometry; assay type: cell-based, human
Protocol: UCMSCs culture as described in Item 2 of the General Experimental Materials were divided into 6 groups, namely, a control group (CG), and 5 experimental groups, i.e., experimental group 1 to 5 (EG1 to EG5), with the number of UCMSCs in each group being 5.8×10^5 cells. Next, the UCMSCs in the EG1 to EG5 were subjected to priming by treating with different concentrations of IFN-γ, i.e., 50, 100, 200, 250 and 500 U/mL of IFN-γ, respectively, for 72 hours, while the UCMSCs in the CG were not subjected to any treatment. For identification of IDO-expressing UCMSCs, the cells in each group were stained with phycoerythrin-conjugated IDO monoclonal antibody (Manufacturer: Thermo Fisher Scientific; Catalogue no.: 12-9477-42) while phycoerythrin-conjugated mouse IgG1 kappa isotype control (Manufacturer: Thermo Fisher Scientific; Catalogue no.: 12-4714-82) served as the control antibody, followed by subjecting the stained cells to flow cytometry conducted using CytoFLEX Flow Cytometer (Beckman Coulter), so as to determine the percentage of IDO-expressing UCMSCs in each group.
In brief, the UCMSCs culture as described in Item 2 of the General Experimental Materials were divided into 9 groups, namely, three control groups, i.e., control groups 1 to 3 (CG1 to CG3), and 6 experimental groups, i.e., experimental group 1-1 (EG1-1), experimental group 1-2 (EG1-2), experimental group 2-1 (EG2-1), experimental group 2-2 (EG2-2), experimental group 3-1 (EG3-1) and experimental group 3-2 (EG3-2), with the number of UCMSCs in each group being 5.8×10^5 cells. Next, the UCMSCs in the EG1-1, EG2-1, and EG3-1 were subjected to priming by treating with 250 U/mL of IFN-γ for 24 hours, 48 hours, and 72 hours, respectively, the UCMSCs in EG1-2, EG2-2, and EG3-2 were treated with 500 U/mL of IFN-γ for 24 hours, 48 hours, and 72 hours, respectively, while the UCMSCs in the CG1, CG2 and CG3 were not subjected to any treatment and were left to stand for 24 hours, 48 hours, and 72 hours, respectively. […]

percentage of IDO-expressing UCMSCs ([1]; 50, 100, 200, 250 and 500 U/mL of IFN-γ, 72 hours, compared with control group, concentration dependent)	percentage of IDO-expressing UCMSCs ([1]; 250 or 500 U/mL of IFN-γ for 24, 48 or 72 hours, compared with the untreated control group of the same time)	percentage of IDO-expressing UCMSCs ([1]; 250 or 500 U/mL of IFN-γ, 72 hours compared with 48 hours and 24 hours)	Molecule	relative mRNA expression level of IDO gene (IDO gene in UCMSCs)
			TNF-α	higher
			CCCC(CCC)C(=O)O [valproic acid]	higher
			polyinosinic acid-polycytidylic acid	higher
higher	higher	higher	IFN-γ: cytokine used for priming of UCMSCs	

From patent US20260014203A1, “USE OF COMPOSITION INCLUDING MESENCHYMAL STEM CELLS FOR ALLEVIATING MYELOFIBROSIS” (MEDICAL AND PHARMACEUTICAL INDUSTRY TECHNOLOGY AND …, priority 2022, published 2026)
